In ChEMBL document CHEMBL1134220, “The synthesis of beta-peptides containing guanidino groups” (Bioorg Med Chem Lett, 2001):

Assay: pKa was determined
Assay type: physicochemical

pKa: 13.5
SMILES: N=C(N)N [GUANIDINE]
